Laboratory results from patent US9833497B2, “Human originated EGF domain proteins and use of the same” (CHENGDU SOURCEBIO LIMITED-LIABILITY COMPANY, priority 2013, dated 2017).

Tests used:
Format in all cases: cell-based
E. coli DH5α = experiment: Antibacterial activity: MIC and growth curve against E. coli DH5α in 96-well plate; conditions: minimal inhibitory concentration against E. coli DH5α; 96-well plate, 5×10^5 CFU/mL, 37° C., judged after 8 h
Method in brief: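 MIC taken as lowest protein level with no bacterial growth, tracked by A600 every 30 min during 37 °C, 175 rpm culture. Two-fold protein series 50-12.5 μg/mL final, triplicate wells, against 5×10^5 CFU/mL of LB-washed mid-log cells.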

Enterobacter cloacae = experiment: MIC against Gram-negative bacteria: Enterobacter cloacae; conditions: 5×10^5 CFU/mL
Method in brief: (§1)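 Purified recombinant human EGF domain proteins are tested by broth dilution in LB against a 5×10^5 CFU/mL inoculum, with two-fold serial dilutions run in triplicate. Plates are incubated at 37° C with shaking, and the MIC is read as the lowest protein concentration without growth.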

Klebsiella pneumonia = experiment: MIC against Gram-negative bacteria: Klebsiella pneumonia; conditions: 5×10^5 CFU/mL
Method in brief: as §1

Citrobacter diversus = experiment: MIC against Gram-negative bacteria: Citrobacter diversus; conditions: 5×10^5 CFU/mL
Method in brief: as §1

Proteus vulgaris = experiment: MIC against Gram-negative bacteria: Proteus vulgaris; conditions: 5×10^5 CFU/mL
Method in brief: as §1

Proteus mirabilis = experiment: MIC against Gram-negative bacteria: Proteus mirabilis; conditions: 5×10^5 CFU/mL
Method in brief: as §1

Aeromonas hydrophila = experiment: MIC against Gram-negative bacteria: Aeromonas hydrophila; conditions: 5×10^5 CFU/mL
Method in brief: as §1

Pseudomonas aeruginosa = experiment: MIC against Gram-negative bacteria: Pseudomonas aeruginosa; conditions: 5×10^5 CFU/mL
Method in brief: as §1

Serratia marcescens = experiment: MIC against Gram-negative bacteria: Serratia marcescens; conditions: 5×10^5 CFU/mL
Method in brief: as §1

E. coli BL21 = experiment: MIC against Gram-negative bacteria: E. coli BL21; conditions: 5×10^5 CFU/mL
Method in brief: as §1

Moraxella catarrhalis = experiment: MIC against Gram-negative bacteria: Moraxella catarrhalis; conditions: 5×10^5 CFU/mL
Method in brief: as §1

[1] = E. coli BL21, 10 h cultivation at 37° C.

Substance | MIC (E. coli DH5α) | MIC (μg/mL) E. cloacae (Enterobacter cloacae; 10 h cultivation at 37° C.) | MIC (μg/mL) K. pneumonia (Klebsiella pneumonia; 10 h cultivation at 37° C.) | MIC (μg/mL) C. diversus (Citrobacter diversus; 10 h cultivation at 37° C.) | MIC (μg/mL) P. vulgaris (Proteus vulgaris; 10 h cultivation at 37° C.) | MIC (μg/mL) P. mirabilis (Proteus mirabilis; 10 h cultivation at 37° C.) | MIC (μg/mL) A. hydrophila (Aeromonas hydrophila; 10 h cultivation at 37° C.) | MIC (μg/mL) P. aeruginosa (Pseudomonas aeruginosa; 10 h cultivation at 37° C.) | MIC (μg/mL) S. marcescens (Serratia marcescens; 10 h cultivation at 37° C.) | MIC (μg/mL) E. coli BL21 (E. coli BL21; [1]) | MIC (μg/mL) M. catarrhalis (Moraxella catarrhalis; 10 h cultivation at 37° C.) | other results
PRT771 (VQDLCSKTTCKNDGVCTVRDGKAECRCQSGEDWWYMGERCE; listed as Homo sapiens) | 25 mg/L | 50 µg/mL | 12.5 µg/mL | 50 µg/mL | 12.5 µg/mL | 50 µg/mL | 12.5 µg/mL | 50 µg/mL | 50 µg/mL | 12.5 µg/mL | 12.5 µg/mL | –
PRT450 (KCLCPLGFLLANDSKTCEDIDE; listed as Homo sapiens) | 12.5 mg/L | – | – | – | – | – | – | – | – | – | – | MIC against E. cloacae (Enterobacter cloacae; 96-well plate, 37° C., 10 h): 12.5 mg/L; MIC against K. pneumonia (Klebsiella pneumonia; 96-well plate, 37° C., 10 h): 50 mg/L; MIC against C. diversus (Citrobacter diversus; 96-well plate, 37° C., 10 h): 12.5 mg/L; MIC against P. vulgaris (Proteus vulgaris; 96-well plate, 37° C., 10 h): 50 mg/L; MIC against P. mirabilis (Proteus mirabilis; 96-well plate, 37° C., 10 h): 12.5 mg/L; MIC against A. hydrophila (Aeromonas hydrophila; 96-well plate, 37° C., 10 h): 50 mg/L; MIC against P. aeruginosa (Pseudomonas aeruginosa; 96-well plate, 37° C., 10 h): 12.5 mg/L; MIC against S. marcescens (Serratia marcescens; 96-well plate, 37° C., 10 h): 12.5 mg/L; MIC against E. coli BL21 (E. coli BL21; 96-well plate, 37° C., 10 h): 12.5 mg/L; MIC against M. catarrhalis (Moraxella catarrhalis; 96-well plate, 37° C., 10 h): 50 mg/L
PRT264 (SGQCLCRSGFAGTACELCAPGAFGPHCQAC; listed as Homo sapiens) | 12.5 mg/L | 12.5 µg/mL | 50 µg/mL | 50 µg/mL | 25 µg/mL | 12.5 µg/mL | 25 µg/mL | 12.5 µg/mL | 12.5 µg/mL | 50 µg/mL | 25 µg/mL | –
PRT154 (DVDECSLAEKTCVRKNENCYNTPGSYVCVCPDGFEETEDACV; listed as Homo sapiens) | 12.5 mg/L | 50 µg/mL | 25 µg/mL | 25 µg/mL | 12.5 µg/mL | 25 µg/mL | 12.5 µg/mL | 12.5 µg/mL | 25 µg/mL | 50 µg/mL | 50 µg/mL | –
PRT1238 (IGEACPKLCSGHGYCTTGAICICDESFQGDDCS; listed as Homo sapiens) | 25 mg/L | – | – | – | – | – | – | – | – | – | – | MIC against E. cloacae (Enterobacter cloacae; Enterobacter cloacae, 96-well plate, 37° C., 10 h): 50 mg/L; MIC against K. pneumonia (Klebsiella pneumonia; Klebsiella pneumonia, 96-well plate, 37° C., 10 h): 12.5 mg/L; MIC against C. diversus (Citrobacter diversus; Citrobacter diversus, 96-well plate, 37° C., 10 h): 50 mg/L; MIC against P. vulgaris (Proteus vulgaris; Proteus vulgaris, 96-well plate, 37° C., 10 h): 25 mg/L; MIC against P. mirabilis (Proteus mirabilis; Proteus mirabilis, 96-well plate, 37° C., 10 h): 12.5 mg/L; MIC against A. hydrophila (Aeromonas hydrophila; Aeromonas hydrophila, 96-well plate, 37° C., 10 h): 12.5 mg/L; MIC against P. aeruginosa (Pseudomonas aeruginosa; Pseudomonas aeruginosa, 96-well plate, 37° C., 10 h): 50 mg/L; MIC against S. marcescens (Serratia marcescens; Serratia marcescens, 96-well plate, 37° C., 10 h): 50 mg/L; MIC against E. coli BL21 (E. coli BL21; E. coli BL21, 96-well plate, 37° C., 10 h): 12.5 mg/L; MIC against M. catarrhalis (Moraxella catarrhalis; Moraxella catarrhalis, 96-well plate, 37° C., 10 h): 25 mg/L
PRT1381 (GMRSCPRGCSQRGRCENGRCVCNPGYTGEDC; listed as Homo sapiens) | 12.5 mg/L | – | – | – | – | – | – | – | – | – | – | MIC against E. cloacae (Enterobacter cloacae; Enterobacter cloacae, 10 h cultivation at 37° C.): 12.5 mg/L; MIC against K. pneumonia (Klebsiella pneumonia; Klebsiella pneumonia, 10 h cultivation at 37° C.): 25 mg/L; MIC against C. diversus (Citrobacter diversus; Citrobacter diversus, 10 h cultivation at 37° C.): 25 mg/L; MIC against P. vulgaris (Proteus vulgaris; Proteus vulgaris, 10 h cultivation at 37° C.): 50 mg/L; MIC against P. mirabilis (Proteus mirabilis; Proteus mirabilis, 10 h cultivation at 37° C.): 25 mg/L; MIC against A. hydrophila (Aeromonas hydrophila; Aeromonas hydrophila, 10 h cultivation at 37° C.): 50 mg/L; MIC against P. aeruginosa (Pseudomonas aeruginosa; Pseudomonas aeruginosa, 10 h cultivation at 37° C.): 50 mg/L; MIC against S. marcescens (Serratia marcescens; Serratia marcescens, 10 h cultivation at 37° C.): 25 mg/L; MIC against E. coli BL21 (E. coli BL21; [1]): 25 mg/L; MIC against M. catarrhalis (Moraxella catarrhalis; Moraxella catarrhalis, 10 h cultivation at 37° C.): 12.5 mg/L
